{"source": "ChEMBL document CHEMBL3352625", "about": "“Development of novel neurokinin 3 receptor (NK3R) selective agonists with resistance to proteolytic degradation” (J Med Chem, 2014)", "key": {"[1]": {"assay": "Agonist activity at cattle NK3R", "set-up": "species or system Bos taurus"}, "Neprilysin [2]": {"target": "T1, Neprilysin (Homo sapiens, UniProt P08473)", "T1 sequence (P08473 whole entry)": "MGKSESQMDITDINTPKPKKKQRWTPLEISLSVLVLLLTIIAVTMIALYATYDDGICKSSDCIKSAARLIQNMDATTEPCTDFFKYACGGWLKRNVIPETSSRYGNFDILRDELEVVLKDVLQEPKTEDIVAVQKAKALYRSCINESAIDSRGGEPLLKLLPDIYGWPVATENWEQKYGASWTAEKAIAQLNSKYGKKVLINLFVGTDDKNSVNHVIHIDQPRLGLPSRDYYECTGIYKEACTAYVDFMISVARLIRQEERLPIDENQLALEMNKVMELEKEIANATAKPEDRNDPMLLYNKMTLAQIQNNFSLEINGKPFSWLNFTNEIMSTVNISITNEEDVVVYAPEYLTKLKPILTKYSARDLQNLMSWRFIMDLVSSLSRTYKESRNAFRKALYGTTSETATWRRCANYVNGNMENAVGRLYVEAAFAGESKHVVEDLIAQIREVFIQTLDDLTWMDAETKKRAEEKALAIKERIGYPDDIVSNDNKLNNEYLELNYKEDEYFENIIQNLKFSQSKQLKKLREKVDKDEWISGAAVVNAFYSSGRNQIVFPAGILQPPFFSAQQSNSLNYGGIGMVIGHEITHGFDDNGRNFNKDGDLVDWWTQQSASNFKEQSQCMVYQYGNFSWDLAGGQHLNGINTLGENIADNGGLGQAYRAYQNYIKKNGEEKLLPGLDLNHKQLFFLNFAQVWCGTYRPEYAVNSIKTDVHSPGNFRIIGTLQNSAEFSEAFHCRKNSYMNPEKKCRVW", "assay": "Drug metabolism assessed as NEP 24.11 (unknown origin)-mediated H-Leu-Met-NH2 up to 24 hrs by HPLC analysis", "type": "ADME"}, "[3]": {"assay": "Metabolic stability in pig serum up to 24 hrs by HPLC analysis", "type": "ADME, Sus scrofa"}, "Serum [4]": {"tested_on": "Serum", "assay": "Metabolic stability in rat serum up to 24 hrs by HPLC analysis", "type": "ADME, cell-free"}, "[5]": {"assay": "Induction of GnRH release in ovariectomized goat assessed as induction of multiple-unit activity volley measured as duration of effect at 200 nmol, iv as single dose", "type": "functional, Capra hircus"}, "Serum [6]": {"tested_on": "Serum", "assay": "Metabolic stability in cattle serum up to 24 hrs by HPLC analysis", "type": "ADME, Bos taurus"}, "[7]": {"assay": "Metabolic stability in pig hypothalamic extract by HPLC analysis", "type": "ADME, Sus scrofa, Hypothalamus"}, "[8]": {"assay": "Agonist activity at goat NK3R", "set-up": "species or system Capra hircus"}, "[9]": {"assay": "Metabolic stability in goat serum up to 24 hrs by HPLC analysis", "type": "ADME, Capra hircus"}, "NEP 24.11 (neprilysin)": {"target": "NEP 24.11 (neprilysin) (Homo sapiens, UniProt P08473)", "sequence (P08473 whole entry)": "as above", "assay": "Drug metabolism assessed as NEP 24.11 (unknown origin)-mediated degradation up to 24 hrs by HPLC analysis", "type": "ADME", "conditions": "NEP 24.11 (neprilysin) enzyme, read-out: Drug metabolism"}, "Neprilysin [10]": {"target": "T1, Neprilysin", "assay": "Drug metabolism assessed as NEP 24.11 (unknown origin)-mediated Succinyl-Asp-Phe-MePhe-Gly-OH up to 24 hrs by HPLC analysis", "type": "ADME"}}, "data": [{"smiles": "CSCC[C@H](NC(=O)[C@H](CC(C)C)NC(=O)CNC(=O)[C@H](Cc1ccccc1)N(C)C(=O)[C@H](Cc1ccccc1)NC(=O)[C@H](CC(=O)O)NC(=O)CCC(=O)O)C(N)=O", "note": "[SENKTIDE]", "values": [{"measurement": "EC50", "setting": "[1]", "result": 340, "unit": "nM"}, {"measurement": "Drug metabolism", "setting": "Neprilysin [2]", "result": "metabolite_detected"}, {"measurement": "Stability", "setting": "[3]", "result": "Stable"}, {"measurement": "Stability", "setting": "Serum [4]", "result": "Stable"}, {"measurement": "Time", "setting": "[5]", "result": 60.6, "unit": "min"}, {"measurement": "Stability", "setting": "Serum [6]", "result": "Stable"}, {"measurement": "Stability", "setting": "[7]", "result": "Stable"}, {"measurement": "EC50", "setting": "[8]", "result": 12, "unit": "nM"}, {"measurement": "Stability", "setting": "[9]", "result": "Stable"}, {"measurement": "metabolised at 24 h", "setting": "NEP 24.11 (neprilysin)", "result": "> 80", "unit": "%"}, {"measurement": "Drug metabolism", "setting": "Neprilysin [10]", "result": "metabolite_detected"}]}]}
